From PubChem BioAssay (NCI)
“And” between values parts separate entries of the source, which are not always exact repeats. Equal values may be shown once.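 Five concentrations, 48 hours, 96-well plates. GI50 is the concentration that inhibits growth by half. Definition used: TGI = concentration required for complete inhibition of growth.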

Key:
Test in all cases: inhibition of tumour cell growth, NCI panel, 48 h
EKVX NSCLC = system: EKVX NSCLC
NCI-H460 lung = system: NCI-H460 lung
HCT-15 colon = system: HCT-15 colon
OVCAR-5 ovarian = system: OVCAR-5 ovarian
OVCAR-8 ovarian = system: OVCAR-8 ovarian
SF-268 CNS = system: SF-268 CNS
NCI-H226 lung = system: NCI-H226 lung
SF-295 CNS = system: SF-295 CNS
DU-145 prostate = system: DU-145 prostate
SN12C renal = system: SN12C renal

| SMILES | GI50 (EKVX NSCLC) [µM] | TGI (EKVX NSCLC) | GI50 (NCI-H460 lung) [µM] | TGI (NCI-H460 lung) | GI50 (HCT-15 colon) [µM] | TGI (HCT-15 colon) [µM] | GI50 (OVCAR-5 ovarian) [µM] | TGI (OVCAR-5 ovarian) | GI50 (OVCAR-8 ovarian) [µM] | TGI (OVCAR-8 ovarian) | GI50 (SF-268 CNS) [µM] | TGI (SF-268 CNS) | GI50 (NCI-H226 lung) [µM] | TGI (NCI-H226 lung) | GI50 (SF-295 CNS) [µM] | TGI (SF-295 CNS) | GI50 (DU-145 prostate) [µM] | TGI (DU-145 prostate) | GI50 (SN12C renal) [µM] | TGI (SN12C renal) [µM] |
| --- | --- | --- | --- | --- | --- | --- | --- | --- | --- | --- | --- | --- | --- | --- | --- | --- | --- | --- | --- | --- |
| CCCCC/C=C\C/C=C/CCCCCCCCNC(=O)Nc1ccc([N+](=O)[O-])cc1 | 23.8 | > 100 µM | 21.9 | > 100 µM | 8.81 | > 100 | 30.8 | > 100 µM | 8.82 | > 100 µM | 38 | > 100 µM | 14.8 | > 100 µM | 4.96 | > 100 µM | 40.1 | > 100 µM | 8.12 | > 100 |
| COc1cc([N+](=O)[O-])c(OC)cc1-c1nc2n(c1/C(N)=N/C(=N)N)CCS2 | 40.3 | > 100 µM | 70.1 | > 100 µM | > 100 | > 100 | > 100 | > 100 µM | 17.5 | > 100 µM | 45.8 | > 100 µM | > 100 | > 100 µM | 37.6 | > 100 µM | 50.4 | > 100 µM | > 100 | > 100 |
| CC#CC(=O)N[C@H]1CCCN(c2c(F)cc(C(N)=O)c3[nH]c(C)c(C)c23)C1 | 18.3 | 45.9 µM | 18.1 | 33.4 µM | 15.9 | 32.9 | 23 | 88.5 µM | 26.1 | 94.7 µM | 17.4 | 45.1 µM | 21.1 | 51.6 µM | 27.3 | 74.5 µM | 26.1 | 88.5 µM | 20.4 | 58.2 |
| Cc1ccc(C)c(N2C(=O)C(=O)c3c(C)ccc(C)c32)c1 |  | > 100 µM |  | > 100 µM |  | 27.2 |  | > 100 µM |  | 51.5 µM |  | 78.2 µM |  | > 100 µM |  | 54.8 µM |  | > 100 µM |  | > 100 |
| O=C(c1ccncc1)N1CCN(C2=NS(=O)(=O)c3ccccc3N2c2ccccc2)CC1 | 35 | > 100 µM | 2.59 | > 100 µM | > 100 | > 100 | 33.4 | > 100 µM | 27.7 | > 100 µM | 8.37 | > 100 µM | 17.1 | 42.4 µM | 9.87 | > 100 µM | 7.77 | > 100 µM | 7.55 | > 100 |
| Cc1nc2sc(C(=O)Nc3cccc(Cl)c3C)c(N)c2cc1C(=O)c1ccccc1 | 0.292 | > 50 µM | 0.198 | 10.3 µM | 0.226 | > 50 | 1.26 | > 50 µM | 0.403 | > 50 µM | 0.375 | > 50 µM | 1.28 | > 50 µM | 0.179 | > 10.6 µM | 0.524 | > 50 µM | 0.568 | > 50 |
| COc1ccc(CCN2COc3ccc4ccc(=O)oc4c3C2)cc1OC |  | > 100 µM |  | > 100 µM |  | > 100 |  | > 100 µM |  | > 100 µM |  | > 100 µM |  | > 100 µM |  | > 100 µM |  | > 100 µM |  | > 100 |
| O=C(NCc1cccs1)OC1CC2CCC1C2 (stereo not drawn) |  | > 100 µM |  | > 100 µM |  | > 100 |  | > 100 µM |  | > 100 µM |  | > 100 µM |  | > 100 µM |  | > 100 µM |  | > 100 µM |  | > 100 |
| O=C(O)C1CCCCC1C(=O)Nc1nc2ccccc2[nH]1 (stereo not drawn) |  | > 100 µM |  | > 100 µM |  | > 100 |  | > 100 µM |  | > 100 µM |  | > 100 µM |  | > 100 µM |  | > 100 µM |  | > 100 µM |  | > 100 |
| C/C=C1\C[C@@H]2C(OC)Nc3cc(O)c(OC)cc3C(=O)N2C1 (stereo partly drawn) | 0.0176 | 0.105 µM and 0.0346 µM | 0.00356 | 0.598 µM and 1.53 µM | 0.00733 |  | 0.00775 | 0.0632 µM and 0.306 µM | 0.00804 | 0.61 µM and 1.03 µM | 0.0027 | 0.174 µM and 1.71 µM | 0.116 | 0.728 µM and 0.163 µM | 0.00328 | 0.467 µM and 1.43 µM | 0.00348 | 0.0248 µM and 0.21 µM | 0.00625 |  |
| CS(=O)(=O)c1ccc(-c2[nH]c3ccc(F)cc3c2/C=N/NC(N)=S)cc1 | 3.94 | > 100 µM | 2.28 | > 100 µM | 0.611 | > 100 | 3.74 | > 100 µM | 2.76 | > 100 µM | 2.42 | > 100 µM | 3.28 | > 100 µM | 0.899 | 13.1 µM | 2.24 | > 100 µM | 3.14 | > 100 |
| CCNC(=O)c1ccc2c(c1)nc(-c1ccc(Cl)cc1)n2-c1cc(C(C)(C)C)[nH]n1 | 3.14 | > 100 µM | 3.53 | 12.5 µM | 3.26 | 18 | 5.91 | 40.1 µM | 3.06 | 13.4 µM | 3.42 | 15.4 µM | 2.56 | 9.24 µM | 2.82 | 11.6 µM | 3.72 | 34.9 µM | 3.79 | 70 |
| O=C(OC(CNc1c(C(=O)c2ccccc2)c(=O)n(Cc2ccccc2)c(=O)n1Cc1ccccc1)CN1CCCCC1)c1ccccc1 (stereo not drawn) | 38.3 | > 100 µM | 21.1 | 46.7 µM | 13.5 | 26.3 | 24.7 | 63.4 µM | 18.3 | 39.7 µM | 24.1 | 53.2 µM | 67.2 | > 100 µM | 22.1 | 42.5 µM | 29.3 | 80.9 µM | 19.3 | 36.9 |
